Paper PMC11939361, “diAcCA, a Pro-Drug for Carnosic Acid That Activates the Nrf2 Transcriptional Pathway, Shows Efficacy in the 5xFAD Transgenic Mouse Model of Alzheimer’s Disease” (Antioxidants, 2025)
“And” between values parts separate entries of the source, which are not always exact repeats. Equal entries are not always repeated. “Also recorded” adds a separate entry of the source. Where two headings read alike, the source gives them in different places.

Key:
[1] = tested on: hiPSC-derived microglia (hiMG); assay: hiMG transplanted into humanized mouse brain, inflammatory markers; format: in vivo, human
Description: The next day, immunostaining was performed on brain sections after 3 washes in PBS and incubation in the appropriate secondary antibody solution on a shaker for 2 h at room temperature. Secondary antibodies included Alexa 488 (A11008, 1:500, goat anti-rabbit, Life Technologies, Carlsbad, CA, USA) and Alexa 555 (A21424, 1:500, goat anti-mouse, Life Technologies). The sections were again washed with PBS 3 times, mounted on Superfrost plus slides (12-550-15, Fisher Scientific, Waltham, MA, USA) and dried at room temperature. […] For each brain, 3–6 images were acquired for each individual marker using a confocal fluorescence microscope (Nikon Eclipse Ti2) (Figure 1, Figure 2 and Figure 3, Supplementary Figure S1). Post image processing, quantification was performed using Fiji ImageJ (1.54f). For the Iba1-stained slides, a mask was made of cells co-labeled for HuNu and Iba1, and then caspase 1 staining was measured. […] For quantification, NeuN, Synapsin I, and GFAP staining were compared between groups by mean fluorescence intensity (MFI), Iba1 and caspase-1 staining was compared by integrated density (ID), Aβ and pTau staining were compared by % area of plaques/aggregates, as previously described. […]

in vivo = conditions: for AUC(0-inf): AUCINF_obs; for AUC(0-t): AUClast
Description: (§1) We tested both CA and diAcCA compounds by oral gavage/PO at 10 mg/kg. Analysis was performed by LC-MS in the Scripps Florida Drug Development Core (Jupiter, FL, USA). The compounds were formulated in olive oil. CA went into the oil with minimal stirring, but diAcCA required longer stirring. Blood was collected in hematocrit tubes and centrifuged. […] Drug is therefore likely absorbed via enterocyte passage and through chylomicron absorbance, complicating the early time points of the PK curves.
(§2) Therefore, we decided to pre-weigh the CA into a vial and, in the vivarium, rapidly dissolve the compound in DMSO and then add Tween80/saline. The compound was dosed within five minutes of being dissolved, and the final concentrations were 5% DMSO and 95% of a 5% Tween80 solution in saline. […] Oral clearance calculations assume 100% bioavailability.
(§3) We also determined the stability and bioavailability of diAcCA compared to CA. For this purpose, individual mice were administered CA or diAcCA IV or via oral gavage/PO. For CA, the doses were 3 mg/kg for the IV route and 10 mg/kg for oral gavage/PO, and for diAcCA 10 mg/kg by oral gavage/PO.

[2] = cited from earlier work
[3] = cited from earlier work; remark: listed apart in the source
[4] = in vivo; for AUC%Extrap: mouse
Description: as §1, §2, §3

[5] = Shelf life / stability of the compound over time; format: physicochemical; conditions: storage (CA: even if kept in the dark and cold)
[6] = male, C57Bl/6, mouse, po, 10 mg/kg
[7] = mouse, po, 10 mg/kg, Plasma concentration of carnosic acid

## CC(C)c1cc2c(c(O)c1O)[C@@]1(C(=O)O)CCCC(C)(C)[C@@H]1CC2 [CA, carnosic acid]
[1]; hiMG activated by α-synuclein/Aβ aggregates with or without cognate antibodies, pretreated with CA (2 µM), 2 weeks after transplantation
  inflammatory response (Iba1 and caspase-1 expression) of transplanted hiMG: significantly prevented this inflammatory reaction; also recorded: prevented this effect
[1]; response to α-synuclein/Aβ aggregates in the presence of CA (2 µM), p = 0.0307
  cleaved/activated caspase-1 integrated density (ID): significant decrease
In vivo; male, C57Bl/6, mouse, iv, 3 mg/kg
  AUC(0-inf): 15000 ng·h/mL
In vivo; male, C57Bl/6, mouse, iv, 3 mg/kg, Cl_obs
  clearance: 3.3 mL/min/kg
In vivo; male, C57Bl/6, mouse, iv, 3 mg/kg, MRTINF_obs
  MRT inf: 5.46 h
In vivo; male, C57Bl/6, mouse, iv, 3 mg/kg, T1/2
  half-life: 13 h
In vivo; [6]
  AUC(0-inf): 10700 ng·h/mL
In vivo; male, C57Bl/6, mouse, po, 10 mg/kg, F%
  bioavailability: 16%
In vivo; male, C57Bl/6, mouse, po, 10 mg/kg, T1/2
  half-life: 19.9 h
In vivo; mouse, iv, 3 mg/kg
  AUC(0-inf): 20100 ng·h/mL
  AUC(0-t): 59.5 µM·h
  Tmax: 0.14 h
In vivo; mouse, iv, 3 mg/kg, t1/2
  half-life: 11.9 h
In vivo; mouse, iv, 5 mg/kg, mean Cmax of CA in plasma
  Cmax: 98.5 µM
In vivo; mouse, iv, average half-life
  half-life: 11.9 h
In vivo; mouse, iv, half-life
  half-life: ~12 h
In vivo; mouse, po, 10 mg/kg
  AUC(0-inf): 9710 ng·h/mL
  AUC(0-t): 28 µM·h
  Tmax: 1.5 h
In vivo; mouse, po, 10 mg/kg, Cmax of CA in plasma
  Cmax: 4.45 µM
In vivo; [7]
  concentration at 480 min: 1 µM and 332 ng/mL
  concentration at 4320 min: 64.4 nM and 21.4 ng/mL
In vivo; mouse, po, 10 mg/kg, average half-life
  half-life: 16.3 h
In vivo; mouse, po, 10 mg/kg, mean Cmax of CA
  Cmax: 4.45 µM
In vivo; mouse, po, 10 mg/kg, t1/2
  half-life: 16.3 h
[2]
  LD50: 7100 mg/kg
[3]; PO and IV routes
  brain levels as share of the plasma level at peak values: approximately 10%
[3]
  CA concentration in the brain, which is neuroprotective: 1 to 2 µM
  CA plasma concentration that produces the neuroprotective brain level: 10 to 20 µM
[4]; C57Bl/6, mouse, po, 6 h
  Calculated Concentration of carnosic acid in plasma: 618 ng/mL
[4]; [6]
  CL*F: 2.7
[4]; iv, 3 mg/kg
  AUC%Extrap: 1.77%
[4]; po, 10 mg/kg
  AUC%Extrap: 4.13%
[5]
  shelf life / stability over time: shelf life of only a couple of months
